Among the data in ChEMBL document CHEMBL3392970, “Novel inhibitors of platelet aggregation” (ACS Med Chem Lett, 2015) are IC50 values, retold here.

The test system of test [1] is Plasma. The test is described as follows: Antiplatelet activity in rat platelet-rich plasma assessed as inhibition of platelet aggregation. It counts as functional, cell-free.
The subject of test [2] is Plasma. Nature of the test: Antiplatelet activity in human platelet-rich plasma assessed as inhibition of platelet aggregation. The test is classed as functional, cell-free.

Each structure is given as a SMILES string.

As for `CCCC(=O)c1cnn([C@H]2CC[C@H](NC(=O)c3cn(CC(=O)N4CCN(C)CC4)c4ccc(Cl)cc34)CC2)c1C`, the IC50 (as a rule, the concentration that inhibits the measured activity by half) in the test on Plasma [1] was found to be 91 nM; in the test with Plasma [2], 270 nM.

As for `CCCC(=O)c1cnn(C2CCN(NC(=O)c3cn(CC(=O)N4CCN(C)CC4)c4ccc(Cl)cc34)CC2)c1C`, the results for the IC50 in the test with Plasma [1] and with Plasma [2] were 43 nM and 25 nM, respectively.
